{"source": "patent US7851590B2", "about": "“Y2 selective receptor agonists for therapeutic interventions” (7TM Pharma A/S, priority 2005, dated 2010)", "key": {"[1]": {"target": "T1, rhesus monkey Y2 receptor (Macaca mulatta, UniProt Q9GK74)", "T1 sequence (Q9GK74 1-381)": "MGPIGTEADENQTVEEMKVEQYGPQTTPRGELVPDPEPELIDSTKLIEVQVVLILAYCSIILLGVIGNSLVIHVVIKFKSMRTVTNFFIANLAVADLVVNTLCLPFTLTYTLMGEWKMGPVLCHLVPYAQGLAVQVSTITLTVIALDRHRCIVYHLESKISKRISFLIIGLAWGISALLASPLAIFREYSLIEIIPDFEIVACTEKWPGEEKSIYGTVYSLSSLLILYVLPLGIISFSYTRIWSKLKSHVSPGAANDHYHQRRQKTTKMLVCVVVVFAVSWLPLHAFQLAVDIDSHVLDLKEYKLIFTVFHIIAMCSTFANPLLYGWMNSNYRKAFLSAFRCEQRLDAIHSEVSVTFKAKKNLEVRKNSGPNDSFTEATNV", "assay": "Rhesus monkey Y2 receptor affinity assay (competition binding with human 125I-PYY)", "set-up": "The coding region of the rhesus monkey NPY-Receptors (Y1, Y2, Y4) were sub-cloned into the pcDNA3.1/Zeo vector; expressed in transfected cells; host or cells: CHO cells, stably transfected", "settings": "CHO cells stably transfected with the rhesus monkey Y2 receptor; 12 pM human 125I-PYY, 3 hours at 4 C; read-out: Competition binding w 126I-PYY at Y2 (Ki)", "protocol": "The stable transfected CHO cells are transferred to 48-well culture plates one day prior assay at a density of 2,500 cells per well aiming at 5-8% binding of the radioactive ligand. […] Cells are washed twice in 0.5 ml of ice-cold buffer and 0.5-1 ml of lysis buffer (8 M Urea, 2% NP40 in 3 M acetic acid) is added and the bound radioactivity is counted in a gamma counter. Determinations are made in triplicates."}, "[2]": {"target": "T1, rhesus monkey Y2 receptor", "assay": "Rhesus monkey Y2 receptor potency assay (phosphatidylinositol turnover, Gqi5)", "type": "cell-based", "set-up": "The coding region of the rhesus monkey NPY-Receptors (Y1, Y2, Y4) were sub-cloned into the pcDNA3.1/Zeo vector; expressed in transfected cells; host or cells: COS-7 cells, transiently transfected", "settings": "COS-7 cells transiently transfected with rhesus monkey Y2 receptor and Gqi5; μM; read-out: IP3 EC50 values at Y2", "protocol": "Determinations are made in duplicates. EC50 values were calculated using a standard pharmacological data handling software, Prism 3.0 (graphPad Sofware, San Diego, USA)."}}, "note": "pKi: −log10 of the molar value."}
{"smiles": "CC[C@H](C)[C@H](NC(=O)[C@H](Cc1ccc(O)cc1)NC(=O)[C@H](CCCNC(=N)N)NC(=O)[C@H](CCCNC(=N)N)NC(=O)[C@H](CC(C)C)NC(=O)[C@H](CC(=O)O)NC(=O)[C@H](C)NC(=O)[C@H](C)NC(=O)[C@H](Cc1ccc(O)cc1)NC(=O)[C@H](CCC(N)=O)NC(=O)[C@H](C)NC(=O)[C@H](CCSC)NC(=O)[C@H](CCC(N)=O)NC(=O)[C@H](CCC(=O)O)NC(=O)[C@@H]1CCCN1C(=O)[C@@H](NC(=O)[C@H](C)NC(=O)[C@H](CC(N)=O)NC(=O)[C@H](CC(=O)O)NC(=O)CNC(=O)[C@@H]1CCCN1C(=O)[C@H](Cc1ccc(O)cc1)NC(=O)[C@@H](NC(=O)[C@@H]1CCCN1C(=O)[C@H](CCC(=O)O)NC(=O)[C@H](CC(C)C)NC(=O)[C@@H]1CCCN1C(=O)[C@H](C)N)C(C)C)[C@@H](C)O)C(=O)N[C@@H](CC(N)=O)C(=O)N[C@@H](CCSC)C(=O)N[C@@H](CC(C)C)C(=O)N[C@H](C(=O)N[C@@H](CCCNC(=N)N)C(=O)N1CCC[C@H]1C(=O)N[C@@H](CCCNC(=N)N)C(=O)N[C@@H](Cc1ccc(O)cc1)C(N)=O)[C@@H](C)O", "note": "[PP, Pancreatic Polypeptide]", "values": [{"measurement": "pKi", "setting": "[1]", "result": "< 6.00"}, {"measurement": "EC50", "setting": "[2]", "result": "> 1", "unit": "µM"}]}
